Data from paper PMC9136011, “Targeting the Homologous Recombination Pathway in Cancer With a Novel Class of RAD51 Inhibitors” (Frontiers in Oncology, 2022).

Legend:
[1] = tested on: Daudi xenograft; test: Daudi xenograft mouse model, tumor growth inhibition; format: in vivo; conditions: 2 mg/kg Cisplatin intraperitoneally every week
Method: Daudi xenograft mouse model was established by subcutaneously implantation of 10^7 cells into the female BABL/c nude mice at the age of 6-8 weeks. When tumors reached approximately 100-120 mm^3, the mice were randomly grouped into five groups (n=6) and treated with vehicle control orally every day, 30 mg/kg or 100 mg/kg Cpd-4 orally every day, 2 mg/kg Cisplatin intraperitoneally every week, or combination of 30 mg/kg Cpd-4 and 2 mg/kg Cisplatin. Cpd-4 was formulated in 30% PEG400 (Sigma) and 70% 10% vitamin E TPGS (Sigma) in water. Cisplatin was reconstituted in normal saline. Cpd-4 was administrated starting from Day 0 and Cisplatin was administrated starting from on Day1. Cisplatin was administrated 4 hours after the treatment of Cpd-4 at day 1, 8 and 15. Tumor volume was monitored twice a week.
The long diameter (a) and the short diameter (b) of the tumor were measured using caliper and the tumor volume (v was calculated using the following formula: […]
Tumor growth inhibition was calculated using the formula:
TGI(%)=(1−(Vt(treatment group)−V0(treatment group))/Vt(vehicle group)−V0(vehicle group))×100%
V0 is the tumor volume of the animal when treatment starts; vtis the tumor volume of the animal someday after treatment. The statistics of tumor volume was analyzed by two-way ANOVA followed by Tukey’s multiple comparisons test using GraphPad Prism 8.0.

[2] = tested on: HuP-T4 cells; test: Cell growth inhibition assay (CellTiter-Glo); format: cell-based; conditions: Homo sapiens, HuP-T4, 168 h; 7 days, estimated from four-parameter curve
Method: (§1) Cells were seeded in opaque-walled 96-well microplates at appropriate densities according to the growth curves (data no shown). On the following day cells were dosed with compounds. After 7 days treatments, cells viability was measured by adding 30μL CellTiter-Glo reagent (Promega) and incubated for 10 min at RT. Luminescence was measured by Envision plate reader (Perkin Elmer). For synergy analysis, the survival rates of the cells upon different treatment combinations were calculated based on the luminescence and analyzed by Combenefit software. The bliss independence model was used to analyzed the interaction between two tested articles to determine if the interaction between those two tested articles was synergistic, independent or antagonistic.

[3] = tested on: MDA-MB-468 cells; test: Cell growth inhibition assay (CellTiter-Glo); format: cell-based; conditions: Homo sapiens, MDA-MB-468, 168 h; 7 days, estimated from four-parameter curve
Method: as §1

[4] = tested on: NCI-H1563 cells; test: Cell growth inhibition assay (CellTiter-Glo); format: cell-based; conditions: Homo sapiens, NCI-H1563, 168 h; 7 days, estimated from four-parameter curve
Method: as §1

[5] = tested on: NCI-H526 cells; test: Cell growth inhibition assay (CellTiter-Glo); format: cell-based; conditions: Homo sapiens, NCI-H526, 168 h; 7 days, estimated from four-parameter curve
Method: as §1

[6] = tested on: HCC15 cells; test: Cell growth inhibition assay (CellTiter-Glo); format: cell-based; conditions: Homo sapiens, HCC15, 168 h; 7 days, estimated from four-parameter curve
Method: as §1

[7] = tested on: MDA-MB-231 cells; test: Cell growth inhibition assay (CellTiter-Glo); format: cell-based; conditions: Homo sapiens, MDA-MB-231, 168 h; 7 days, estimated from four-parameter curve
Method: as §1

[8] = tested on: Z-138 cells; test: Cell growth inhibition assay (CellTiter-Glo); format: cell-based; conditions: Homo sapiens, Z-138, 168 h; 7 days, estimated from four-parameter curve
Method: as §1

[9] = tested on: Raji cells; test: Cell growth inhibition assay (CellTiter-Glo); format: cell-based; conditions: Homo sapiens, 168 h, 7 days, estimated from four-parameter curve
Method: as §1

[10] = tested on: HCC1937 cells; test: Cell growth inhibition assay (CellTiter-Glo); format: cell-based; conditions: Homo sapiens, HCC1937, 168 h; 7 days, estimated from four-parameter curve
Method: as §1

[11] = tested on: normal WI-38 cells; test: Cell growth inhibition assay, normal cells; format: cell-based; conditions: Homo sapiens, read-out: IC50, normal cell viability
Method: as §1

[12] = tested on: Daudi cells; test: Cell growth inhibition assay (CellTiter-Glo) and Bliss synergy analysis; format: cell-based; conditions: Homo sapiens, 168 h, 7 days; for IC50: estimated from four-parameter curve
Method: as §1

[13] = tested on: A549 cells; test: as above; format: cell-based; conditions: Homo sapiens, A549, 168 h; 7 days, estimated from four-parameter curve
Method: as §1

[14] = tested on: NCI-H23 cells; test: as above; format: cell-based; conditions: Homo sapiens, NCI-H23, 168 h; 7 days, estimated from four-parameter curve
Method: as §1

[15] = tested on: MIA PaCa-2 cells; test: as above; format: cell-based; conditions: Homo sapiens, MIA PaCa-2, 168 h; 7 days, estimated from four-parameter curve
Method: as §1

[16] = tested on: KP-4 cells; test: as above; format: cell-based; conditions: Homo sapiens, KP-4, 168 h; 7 days, estimated from four-parameter curve
Method: as §1

[17] = tested on: MDA-MB-436 cells; test: as above; format: cell-based; conditions: Homo sapiens, MDA-MB-436, 168 h; 7 days, estimated from four-parameter curve
Method: as §1

[18] = tested on: 15 human tumor cell lines; test: Cell growth inhibition assay, panel summary; format: cell-based; conditions: lowest to highest, upper end printed as over 25 μM, read-out: IC50 values across the 15 cell lines
Method: as §1

IC50 [3] [µM] | IC50 [4] [µM] | IC50 [5] [µM] | IC50 [6] [µM] | IC50 [7] [µM] | IC50 [9] [µM] | IC50 [10] [µM] | IC50 [12] [µM] | IC50 [13] [µM] | IC50 [14] [µM] | IC50 [15] [µM] | IC50 [17] [µM] | IC50 [18] [µM] | Compound | TGI [1] [%] | IC50 [2] [µM] | IC50 [8] [µM] | IC50 [11] [µM] | inhibition at 0.25 µM ([12]; Cpd-2 250 nM) [%] | IC50 [16] [µM]
 |  |  |  |  |  |  |  |  |  |  |  |  | N.N.[Cl][Pt][Cl] [Cisplatin, cisplatin] | 20.7 |  |  |  |  | 
0.63 | 12.8 | 0.353 | 2.02 | 5.15 | 0.164 | 3.29 | 0.048 | 3.96 | 3.54 | 4.73 | 2.65 |  | CC(C)OC(=O)Nc1ccc(-c2cnc(C3CCC(NC(=O)OC(C)C)CC3)s2)c(S(=O)(=O)C2CC2)c1 (stereo not shown) [Cpd-2] |  | 7.99 | 4.57 | > 10 | 41.1 | 3.17
5.55 | > 25 | 3.91 | 9.17 | 4.92 | 4.87 | 10.7 | 5.78 | 17.8 | 3.3 | 7.16 | 0.134 | 0.134 to 25 | O=C(c1cc(Cc2n[nH]c(=O)c3ccccc23)ccc1F)N1CCN(C(=O)C2CC2)CC1 [Olaparib, olaparib] |  | 7.71 | 1.49 |  |  | 7.09
